pEC50: −log10 of the molar value. Read-outs that look alike come from different tables or passages of the source. Positions of bridges follow the written chain, without caps; N, C: chain ends. Non-standard residues stand in square brackets, D forms with d. Residues, ends and D or L forms follow the SMILES beside them. *: point of attachment. Ala(2-furyl) = N[C@@H](Cc1ccco1)C(=O)O; Orn(iPr) = CC(C)NCCC[C@H](N)C(=O)O; 3Pal = N[C@@H](Cc1cccnc1)C(=O)O; 4Pal = N[C@@H](Cc1ccncc1)C(=O)O; 2Thi = N[C@@H](Cc1cccs1)C(=O)O; NHCH(CH2OH)2 = OCC(CO)N*; Orn = NCCC[C@H](N)C(=O)O; Dab = NCC[C@H](N)C(=O)O; NHCH2CH2OH = OCCN*; X4 = OCCOCCN*
How the values were obtained:
[1] = system: anaesthetised Sprague-Dawley male rats; experiment: in vivo duration of action, blood pressure test in anaesthetised rats; set-up: species or system rat; details: ratio of decay rate of diastolic blood pressure response, AVP 0.1 nmol/kg i.v. to equieffective dose of compound; dibenamine-pretreated rats
Method: Blood pressure tests were carried out on anaesthetised Sprague-Dawley male rats (weighing 270-300 g) with catheterised jugular vein and carotid artery. The catheterised carotid artery was used to continuously monitor blood pressure and the jugular vein was used for administration of the compounds tested. Rats received intravenous injections of dibenamine prior to dosing to enhance their responsiveness to V1a receptor agonists (cf. Dekanski, J., Br. J. Pharmacol. 1952, 7, 567-572). […] Dosing intervals were set as time for the blood pressure to decrease to a stable baseline.
Determination of duration of action was based on the decay rate of diastolic arterial blood pressure transient increase. Specifically, for an exponential decay of plasma concentration, it can be shown that, if the response is measured beyond the distribution phase, the rate of decay near the EC50 is linear and inversely proportional to the elimination half-life (Rowland, M. and Tozer, T. in “Clinical Pharmacokinetics, Concepts and Applications”, 3rd ed., Lippincott Williams & Wilkins, Philadelphia, 1995).

[2] = target: T1, human oxytocin (hOT) receptor (Homo sapiens, UniProt P30559); experiment: luciferase-based transcriptional reporter assay, selectivity hOT versus hV1a; type: cell-based
T1 construct: expressed in transfected cells
T1 sequence (P30559 1-389): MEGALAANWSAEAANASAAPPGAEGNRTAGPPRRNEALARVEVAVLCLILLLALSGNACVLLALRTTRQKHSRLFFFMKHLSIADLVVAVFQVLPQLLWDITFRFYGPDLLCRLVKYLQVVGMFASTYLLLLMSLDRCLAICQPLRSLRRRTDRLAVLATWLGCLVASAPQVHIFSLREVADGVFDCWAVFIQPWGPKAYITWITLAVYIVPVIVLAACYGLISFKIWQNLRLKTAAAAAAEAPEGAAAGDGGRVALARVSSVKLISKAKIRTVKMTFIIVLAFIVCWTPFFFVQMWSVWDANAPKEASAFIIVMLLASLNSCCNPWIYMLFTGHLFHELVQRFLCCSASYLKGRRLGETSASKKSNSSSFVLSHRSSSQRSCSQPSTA
Method: (§1) Agonist activity of compounds on the hV1a receptor was determined in a transcriptional reporter assay by transiently transfecting a hV1a receptor expression DNA into HEK-293 cells in concert with a reporter DNA containing intracellular calcium responsive promoter elements regulating expression of firefly luciferase. See Boss, V., Talpade, D. J., Murphy, T. J. J. Biol. Chem. 1996, May 3; 271(18), 10429-10432 for further guidance on this assay. […] To determine selectivity, compounds were tested in luciferase-based transcriptional reporter assays expressing the human oxytocin (hOT) receptor. Assays for other receptors (hV2, hV1b, rat V1a and rat V2) were also conducted.
(§2) The EC50 value given is the geometric mean expressed in nanomol/L (nM). Selectivity values are given as EC50 ratios.

[3] = target: T2, hV1a receptor (Homo sapiens, UniProt P37288); experiment: hV1a receptor transcriptional reporter (luciferase) agonist assay; type: cell-based
T2 construct: expressed in transfected cells; host or cells: HEK-293
Method: as §1, §2

[4] = HEK-293 cells transiently transfected with hV1a receptor, 5 hours exposure, geometric mean, read-out: EC50 hV1a receptor
[5] = class symbol, agonist efficacy at hOT receptor compared to AVP

T2 sequence (P37288 whole entry): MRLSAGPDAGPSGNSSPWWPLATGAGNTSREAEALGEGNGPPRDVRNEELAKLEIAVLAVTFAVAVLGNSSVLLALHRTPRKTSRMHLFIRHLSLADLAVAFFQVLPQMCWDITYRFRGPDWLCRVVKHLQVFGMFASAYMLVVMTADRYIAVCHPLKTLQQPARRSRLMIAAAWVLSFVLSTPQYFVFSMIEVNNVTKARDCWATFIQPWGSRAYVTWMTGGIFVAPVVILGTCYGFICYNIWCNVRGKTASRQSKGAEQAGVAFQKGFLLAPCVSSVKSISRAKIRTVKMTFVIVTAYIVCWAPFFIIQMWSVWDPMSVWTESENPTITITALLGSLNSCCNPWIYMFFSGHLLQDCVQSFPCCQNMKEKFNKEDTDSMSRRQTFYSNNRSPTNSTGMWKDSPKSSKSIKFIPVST

Compound | pEC50 [3, 4] | selectivity hOT/hV1a [2, 5] | other results
[Phe2,Orn8]OT [[Phe2, Orn8]OT, reference compound] | – | – | in vivo duration relative to AVP [1]: 1.9; selectivity hOT/hV1a ([2]; EC50 ratio): 60
CC[C@H](C)[C@@H]1NC(=O)[C@H](Cc2ccco2)NC(=O)[C@@H](N)CSSC[C@@H](C(=O)N2CCC[C@H]2C(=O)N[C@@H](CCCN)C(=O)NCC(N)=O)NC(=O)[C@H](CC(N)=O)NC(=O)[C@H](CCC(N)=O)NC1=O [Compound 32] (H-C[Ala(2-furyl)]IQNCP[Orn]G-NH2; disulfide 1-6) | – | – | in vivo duration relative to AVP [1]: 2.1
CC[C@H](C)[C@@H]1NC(=O)[C@H](Cc2ccccc2)NC(=O)[C@@H](N)CSSC[C@@H](C(=O)N2CCC[C@H]2C(=O)N[C@@H](CCCN)C(=O)NCC(N)=O)NC(=O)[C@H](CC(N)=O)NC(=O)[C@H](CC(=O)N(C)C)NC1=O [Compound 7] (H-CFID(NMe2)NCP[Orn]G-NH2; disulfide 1-6) | – | – | pEC50 [3]: 8.55; selectivity hOT/hV1a [2]: + (key: +: selective hV1a receptor agonist; EC50 hOT/hV1a ratio not determined due to very low agonist efficacy (<30% compared to AVP) at the hOT receptor)
CC[C@H](C)[C@@H]1NC(=O)[C@H](Cc2ccccc2)NC(=O)[C@@H](N)CSSC[C@@H](C(=O)N2CCC[C@H]2C(=O)N[C@@H](CCN)C(=O)NCC(N)=O)NC(=O)[C@H](CC(N)=O)NC(=O)[C@H](CC(=O)NC)NC1=O [Compound 31] (H-CFID(NHMe)NCP[Dab]G-NH2; disulfide 1-6; N-terminus and C-terminus assumed) | 8.41 | + (selective hV1a receptor agonist; EC50 hOT/hV1a ratio not determined due to very low agonist efficacy (<30% compared to AVP) at the hOT receptor) | –
CC[C@H](C)[C@@H]1NC(=O)[C@H](Cc2cccs2)NC(=O)[C@@H](N)CSSC[C@@H](C(=O)N2CCC[C@H]2C(=O)N[C@@H](CCCNC(C)C)C(=O)NCC(N)=O)NC(=O)[C@H](CC(N)=O)NC(=O)[C@H](CC(N)=O)NC1=O [Compound 43] (H-C[2Thi]INNCP[Orn(iPr)]G-NH2; disulfide 1-6; N-terminus and C-terminus assumed) | 7.86 | + (selective hV1a receptor agonist; EC50 hOT/hV1a ratio not determined due to very low agonist efficacy (<30% compared to AVP) at the hOT receptor) | –
CC[C@H](C)[C@@H]1NC(=O)[C@H](Cc2ccccc2)NC(=O)[C@@H](N)CSSC[C@@H](C(=O)N2CCC[C@H]2C(=O)N[C@@H](CCCN)C(=O)NCC(N)=O)NC(=O)[C@H](CC(N)=O)NC(=O)[C@H](CC(=O)NCCOCCO)NC1=O [Compound 29] (H-CFID(X4)NCP[Orn]G-NH2; disulfide 1-6; N-terminus and C-terminus assumed) | 8.32 | + (selective hV1a receptor agonist; EC50 hOT/hV1a ratio not determined due to very low agonist efficacy (<30% compared to AVP) at the hOT receptor) | –
CC[C@H](C)[C@@H]1NC(=O)[C@H](Cc2ccccc2)NC(=O)[C@@H](N)CSSC[C@@H](C(=O)N2CCC[C@H]2C(=O)N[C@@H](CCCN)C(=O)NCC(N)=O)NC(=O)[C@H](CC(N)=O)NC(=O)[C@H](CC(=O)NC(CO)CO)NC1=O [Compound 27] (H-CFID(NHCH(CH2OH)2)NCP[Orn]G-NH2; disulfide 1-6; N-terminus and C-terminus assumed) | 7.79 | + (selective hV1a receptor agonist; EC50 hOT/hV1a ratio not determined due to very low agonist efficacy (<30% compared to AVP) at the hOT receptor) | –
CC[C@H](C)[C@@H]1NC(=O)[C@H](Cc2ccccc2)NC(=O)[C@@H](N)CSSC[C@@H](C(=O)N2CCC[C@H]2C(=O)N[C@@H](CCCN)C(=O)NCC(N)=O)NC(=O)[C@H](CC(N)=O)NC(=O)[C@H](CC(=O)NCCO)NC1=O [Compound 23] (H-CFID(NHCH2CH2OH)NCP[Orn]G-NH2; disulfide 1-6) | 8.10 | + (selective hV1a receptor agonist; EC50 hOT/hV1a ratio not determined due to very low agonist efficacy (<30% compared to AVP) at the hOT receptor) | –
CC[C@H](C)[C@@H]1NC(=O)[C@H](Cc2ccco2)NC(=O)[C@@H](N)CSSC[C@@H](C(=O)N2CCC[C@H]2C(=O)N[C@@H](CCCN)C(=O)NCC(N)=O)NC(=O)[C@H](CC(N)=O)NC(=O)[C@H](CC(N)=O)NC1=O [Compound 38] (H-C[Ala(2-furyl)]INNCP[Orn]G-NH2; disulfide 1-6; N-terminus and C-terminus assumed) | 8.00 | + (selective hV1a receptor agonist; EC50 hOT/hV1a ratio not determined due to very low agonist efficacy (<30% compared to AVP) at the hOT receptor) | –
CC[C@H](C)[C@@H]1NC(=O)[C@H](Cc2cccnc2)NC(=O)[C@@H](N)CSSC[C@@H](C(=O)N2CCC[C@H]2C(=O)N[C@@H](CCN)C(=O)NCC(N)=O)NC(=O)[C@H](CC(N)=O)NC(=O)[C@H](CCC(N)=O)NC1=O [Compound 18] (H-C[3Pal]IQNCP[Dab]G-NH2; disulfide 1-6; N-terminus and C-terminus assumed) | 7.53 | + (selective hV1a receptor agonist; EC50 hOT/hV1a ratio not determined due to very low agonist efficacy (<30% compared to AVP) at the hOT receptor) | –
CC[C@H](C)[C@@H]1NC(=O)[C@H](Cc2cccs2)NC(=O)[C@@H](N)CSSC[C@@H](C(=O)N2CCC[C@H]2C(=O)N[C@@H](CCN)C(=O)NCC(N)=O)NC(=O)[C@H](CC(N)=O)NC(=O)[C@H](CCC(N)=O)NC1=O [Compound 14] (H-C[2Thi]IQNCP[Dab]G-NH2; disulfide 1-6) | 9.27 | – | selectivity hOT/hV1a ([2]; EC50 ratio): 75
CC[C@H](C)[C@@H]1NC(=O)[C@H](Cc2ccccc2)NC(=O)[C@@H](N)CSSC[C@@H](C(=O)N2CCC[C@H]2C(=O)N[C@@H](CCN)C(=O)NCC(N)=O)NC(=O)[C@H](CC(N)=O)NC(=O)[C@H](CCC(N)=O)NC1=O [Compound 8] (H-CFIQNCP[Dab]G-NH2; disulfide 1-6; N-terminus and C-terminus assumed) | 9.30 | – | selectivity hOT/hV1a ([2]; EC50 ratio): 11
CC[C@H](C)[C@@H]1NC(=O)[C@H](Cc2ccncc2)NC(=O)[C@@H](N)CSSC[C@@H](C(=O)N2CCC[C@H]2C(=O)N[C@@H](CCN)C(=O)NCC(N)=O)NC(=O)[C@H](CC(N)=O)NC(=O)[C@H](CCC(N)=O)NC1=O [Compound 12] (H-C[4Pal]IQNCP[Dab]G-NH2; disulfide 1-6) | – | – | pEC50 [3]: 7.60; selectivity hOT/hV1a [2]: + (key: +: selective hV1a receptor agonist; EC50 hOT/hV1a ratio not determined due to very low agonist efficacy (<30% compared to AVP) at the hOT receptor)
CC[C@H](C)[C@@H]1NC(=O)[C@H](Cc2ccco2)NC(=O)[C@@H](N)CSSC[C@@H](C(=O)N2CCC[C@H]2C(=O)N[C@@H](CCN)C(=O)NCC(N)=O)NC(=O)[C@H](CC(N)=O)NC(=O)[C@H](CC(N)=O)NC1=O [Compound 44] (H-C[Ala(2-furyl)]INNCP[Dab]G-NH2; disulfide 1-6; N-terminus and C-terminus assumed) | 7.84 | + (selective hV1a receptor agonist; EC50 hOT/hV1a ratio not determined due to very low agonist efficacy (<30% compared to AVP) at the hOT receptor) | –
